We go through 16 compounds from ChEMBL document CHEMBL1152802, “Discovery of novel Trypanosoma cruzi glyceraldehyde-3-phosphate dehydrogenase inhibitors” (Bioorg Med Chem, 2009).

Each structure is given as a SMILES string.

The IC50 is the midpoint of a concentration-inhibition curve. As a reminder, the inhibition is the change of the read-out against control, counted positive when it falls.

In test [1] the target is Glyceraldehyde-3-phosphate dehydrogenase, glycosomal (Trypanosoma cruzi, UniProt P22513). In words: (§1) Inhibition of Trypanosoma cruzi recombinant glycosomal GAPDH expressed in Escherichia coli by spectrophotometry.
For test [2], the system named is Trypanosoma cruzi. Briefly: Antitrypanosomal activity against Trypanosoma cruzi amastigote forms. The class given is functional, organism-based.
The target in test [3] is Glyceraldehyde-3-phosphate dehydrogenase, glycosomal (Trypanosoma cruzi) (UniProt P22513). The description is as §1. The note with it: concentration not given here.
Test [4] relates to Trypanosoma cruzi. Briefly: Antitrypanosomal activity against Trypanosoma cruzi amastigote forms at 841 uM. Type of test: functional.
A further test relates to Leishmania amazonensis. Briefly: Antileishmanial activity against Leishmania amazonensis amastigote forms at 841 uM. Type of test: functional.
The next test has as its system Ehrlich. Briefly: Cytotoxicity against mouse Ehrlich carcinoma cells. Type of test: functional, cell-based.

Glyceraldehyde-3-phosphate dehydrogenase, glycosomal, sequence (P22513 whole entry): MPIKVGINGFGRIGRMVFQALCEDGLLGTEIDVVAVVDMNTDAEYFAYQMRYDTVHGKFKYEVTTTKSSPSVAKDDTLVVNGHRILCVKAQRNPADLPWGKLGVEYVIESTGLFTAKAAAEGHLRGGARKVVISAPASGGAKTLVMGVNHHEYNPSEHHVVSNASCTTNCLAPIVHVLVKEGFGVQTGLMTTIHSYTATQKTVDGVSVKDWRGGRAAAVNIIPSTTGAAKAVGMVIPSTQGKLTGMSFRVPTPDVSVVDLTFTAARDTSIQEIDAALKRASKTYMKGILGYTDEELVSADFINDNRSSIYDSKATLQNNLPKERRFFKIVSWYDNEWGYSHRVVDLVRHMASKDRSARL
Glyceraldehyde-3-phosphate dehydrogenase, glycosomal (Trypanosoma cruzi), sequence (P22513 whole entry): as above

Take `COc1ccc(-c2coc3cc(O)c(OC)cc3c2=O)cc1` [CASTANIN]: the IC50 in test [1] amounted to 84 µM. Same read-out and setting: then `COc1cccc(C(=O)N[C@@H]2[C@H](O)[C@@H](COP(=O)(O)O)O[C@H]2n2cnc3c(NCc4cccc5ccccc45)ncnc32)c1`, with 5 µM. For the compound `O=c1c(O)c(-c2ccc(O)c(O)c2)oc2cc(O)cc(O)c12` [QUERCETIN], the concentration for half-maximal inhibition (IC50) was found to be 142 µM in test [1] and 771 µM with Trypanosoma cruzi [2]. With `O=c1ccc2ccc(O)cc2o1` [UMBELLIFERONE], in test [1], the IC50 came to 617 µM. On to `CC(=O)Oc1ccc(-c2cc3cc(OC(C)=O)c(OC(C)=O)cc3oc2=O)cc1OC(C)=O`, for which, in test [1], the IC50 came to 17.8 µM. `C[C@H]1[C@H](C)CC[C@]2(C(=O)O)CC[C@]3(C)C(=CC[C@@H]4[C@@]5(C)CC[C@H](O)C(C)(C)[C@@H]5CC[C@]43C)[C@H]12` [URSOLIC ACID]: the inhibition in test [3] is 25%. Moreover, the IC50 in the test with Trypanosoma cruzi [2] is 4 µM. Take `CCC/C=C/C/C=C/CCCCCCCc1cccc(O)c1C(=O)O`: the IC50 in test [1] came out at 69 µM. For the compound `COc1cccc(C(=O)N[C@@H]2[C@H](O)[C@@H](CO)O[C@H]2n2cnc3c(NCc4cccc5ccccc45)ncnc32)c1`, in test [1], the IC50 came out at 12 µM. Still for that read-out and setting: then `O=c1c(O[C@@H]2OC[C@H](O)[C@H](O)[C@H]2O)c(-c2ccc(O)c(O)c2)oc2cc(O)cc(O)c12` [GUAJAVERIN], with 140 µM. For the compound `O=C(/C=C/c1ccc(O)cc1)OC[C@H]1O[C@@H](Oc2c(-c3ccc(O)cc3)oc3cc(O)cc(O)c3c2=O)[C@H](O)[C@@H](O)[C@@H]1O` [TILIROSIDE], the IC50 in test [1] was determined as 46 µM; in the test on Ehrlich, 69.5 µM. The Activity in the test on Trypanosoma cruzi [4] came to 45%; with Leishmania amazonensis it was 67.8%. For the compound `COc1cc2oc(-c3cc(OC)c(OC)c(OC)c3)cc(=O)c2cc1OC`, in test [1], the half-maximal inhibitory concentration (IC50) was 81 µM. In the case of `O=c1c2cc(O)c(O)cc2oc2cc(O)c([C@@H]3O[C@H](CO)[C@@H](O)[C@H](O)[C@H]3O)c(O)c12` [MANGIFERIN], in test [1], the IC50 came out at 149 µM. Still for that read-out and setting: to `O=c1ccc2ccccc2o1` [COUMARIN] belongs 692 µM; to `C=CC/C=C/C/C=C/CCCCCCCc1cccc(O)c1C(=O)O`, 38 µM; to `C=CC(C)(C)c1cc2cc3c(cc2oc1=O)O[C@H](C(C)(C)O)C3` [CHALEPIN], 64 µM. Turning to `CCCCCC/C=C/CCCCCCCc1cccc(O)c1C(=O)O`, the IC50 in test [1] was 161 µM.
